Legend:
ubiquitinated proteins = assay: Accumulation of ubiquitinated proteins (α-Ub immunoblot of total protein); format: in vivo, Arabidopsis thaliana; details: WT; absent in npr1-2; SA for 6 hr
Experimental: (§1) Protein analysis and IP. Recombinant protein analysis was performed using transient expression in N. benthamiana, or stable over-expression in transgenic Arabidopsis, or expression in E. coli. Total protein extraction from plants was performed by homogenizing leaf tissue in the plant extraction buffer [50 mM Tris-HCl (pH 7.5), 150 mM NaCl, 5 mM EDTA, 0.2% Triton X-100, 0.2% Nonidet P-40] supplemented with 1 mM PMSF, 100 μM MG132, and EDTA-free protease inhibitor cocktail (Roche). For ubiquitinated protein analysis in plants, 100 μM of DUB (deubiquitinase) inhibitor (LifeSensors) and 10 mM NEM were added. Next, the lysates were cleared by centrifugation at 14,000 rpm for 15 min followed by filtering through a 0.2 μm filter. […] Pull-downs or IP experiments were done on total protein extracts by incubating protein samples in the lysis buffer overnight with indicated affinity tag or antibody conjugated to agarose or magnetic beads: GFP-trap agarose beads (Chromotek) for GFP fusions; RFP-trap agarose beads (Chromotek) for mCherry fusions; anti-HA magnetic beads (ThermoFisher) for HA tag fusions; anti-DYKDDDDK coupled magnetic agarose (ThermoFisher) for FLAG tag fusions; and glutathione magnetic agarose (ThermoFisher) for GST fusions. Unless otherwise indicated, after pull-down/IP, beads were washed 3 times and proteins were eluted by boiling in the 2×SDS sample buffer. […]

ETI activated by RPP1 = assay: ATR1/RPP1-induced cell death (conductivity assay); format: in vivo, Nicotiana benthamiana; details: SA/NPR1-mediated; 1 mM SA
Description: (§2) Chemical treatment, pathogen infection and cell death assays. […] At 2 days, the bacterial colonies were scored.
VIGS assay. The silencing of NbNPR1 (NbNPR1-RNAi) and NbCUL3 (NbCUL3-RNAi) was done using VIGS assay performed as previously described. Ten-day-old WT N. benthamiana plants were inoculated with Agrobacteria (GV3101) carrying the helper plasmid pTRV1-LIC mixed at 1:1 with a strain carrying either pTRV2-LIC (empty vector control, E.V.), pTRV2-NbPDS (positive control), pTRV2-NbNPR1 or pTRV2-NbCUL3 vectors. Ten days later, gene silencing in the mock and SA-treated plants was verified in the systemic leaves by qPCR using gene-specific and reference gene (eIF4a) primers (Table 6). NbNPR1 silencing was additionally confirmed by analysis of NbPR1 expression. The silenced leaves were used in the standard transient expression assay by agroinfiltration using strains carrying the indicated test genes; and gene expression was assayed at 2 dpi.

[1] = tested on: Psm ES4326/AvrRpt2-mediated cell death; assay: Cell death (conductivity/electrolyte leakage, trypan blue) after Psm ES4326/AvrRpt2 inoculation; format: in vivo, Arabidopsis thaliana; details: SA pretreatment at 0.5 and 1 mM; WT plants, not in npr1-2 mutant
Experimental: as §2
Trypan blue staining. Leaves of three-week-old Arabidopsis infected with Psm ES4326/AvrRpt2 were sampled at 1 dpi, boiled in 95% ethanol until completely bleached, followed by boiling for 3 min in a 1:1 mixture of 95% ethanol and staining solution (10 ml lactic acid, 10 ml glycerol, 10 g phenol and 10 mg trypan blue, dissolved in 10 ml DDW). The leaves were then de-stained in 2.5 g/ml chloral hydrate solution and transferred to 70% glycerol for subsequent imaging.

EDS1 = assay: Stability (cycloheximide) and ubiquitination of EDS1; format: in vivo, Arabidopsis thaliana; details: WT
Experimental: as §2
as §1, with “fusions.” for “fusions. Unless otherwise indicated, after pull-down/IP, beads were washed 3 times and proteins were eluted by boiling in the 2×SDS sample buffer.”

ETI activated by RPS4 = assay: Cell death after Pf Pf0-1/AvrRps4 inoculation (conductivity assay); format: in vivo, Arabidopsis thaliana; details: SA/NPR1-mediated
Description: as §2

Psm ES4326/AvrRpt2 = assay: Bacterial growth assay in infected leaves; format: in vivo, Arabidopsis thaliana; details: SA pretreatment at 0.5 and 1 mM; WT plants, not in npr1-2 mutant
Description: as §2

NPR1-GFP = biological target: T1, NPR1-GFP (Arabidopsis thaliana, UniProt P93002); assay: Localization of NPR1-GFP and sim3-GFP, transient expression in Arabidopsis seedlings; format: cell-based; details: for nuclear-cytoplasmic partitioning of NPR1-GFP: 2 hr
T1 construct: expressed in transfected cells; host or cells: Arabidopsis Col-0 seedlings, Agrobacterium-mediated transient expression
T1 sequence (P93002 1-593): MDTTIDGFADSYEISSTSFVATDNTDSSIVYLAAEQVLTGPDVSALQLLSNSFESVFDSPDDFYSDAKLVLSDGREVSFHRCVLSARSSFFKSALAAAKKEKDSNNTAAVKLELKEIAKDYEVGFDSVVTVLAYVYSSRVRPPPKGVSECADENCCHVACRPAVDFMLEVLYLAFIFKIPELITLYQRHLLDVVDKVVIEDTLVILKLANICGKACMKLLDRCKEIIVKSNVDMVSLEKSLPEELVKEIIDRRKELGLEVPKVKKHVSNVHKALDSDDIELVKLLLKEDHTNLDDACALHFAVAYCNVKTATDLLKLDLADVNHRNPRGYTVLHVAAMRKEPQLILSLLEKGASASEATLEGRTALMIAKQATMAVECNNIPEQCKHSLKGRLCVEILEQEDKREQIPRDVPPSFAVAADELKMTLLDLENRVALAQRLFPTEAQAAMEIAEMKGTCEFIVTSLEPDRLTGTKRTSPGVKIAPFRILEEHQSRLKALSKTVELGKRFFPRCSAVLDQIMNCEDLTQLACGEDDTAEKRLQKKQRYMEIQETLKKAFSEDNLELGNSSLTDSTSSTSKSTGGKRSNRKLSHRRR

## O=C(O)c1ccccc1O [SA, salicylic acid]
Ubiquitinated proteins
  accumulation of ubiquitinated proteins: concentration-dependent accumulation of ubiquitinated proteins
ETI activated by RPP1
  ETI activated by RPP1 (effector ATR1): inhibition
[1]
  Psm ES4326/AvrRpt2-mediated cell death: fully suppress
EDS1; 1 mM SA for 6 hr, not in npr1-2 nor eds1-2
  ubiquitination of EDS1: increased SA-mediated ubiquitination of EDS1
EDS1; 1 mM SA 4 hr then 100 μM cycloheximide, 16 hours co-incubation, unchanged in npr1-2
  amount of EDS1 in the absence of new protein synthesis: significantly decreased
ETI activated by RPS4
  ETI activated by RPS4 (effector AvrRps4): inhibition
Psm ES4326/AvrRpt2
  pathogen growth: increased pathogen growth
NPR1-GFP; 1 mM SA
  nuclear-cytoplasmic partitioning of NPR1-GFP: predominant nuclear accumulation of NPR1-GFP
NPR1-GFP; 5 mM SA
  nuclear-cytoplasmic partitioning of NPR1-GFP: fluorescence was detected also in the cytoplasm
NPR1-GFP; SA treatment 2 hr
  formation of NPR1-GFP bodies in nucleus and cytoplasm: induced formation of discrete NPR1-GFP bodies

B1: sim3: SUMOylation-deficient mutant of NPR1 (protein)
chain: MDTTIDGFADSYEISSTSFVATDNTDSSIVYLAAEQVLTGPDVSALQLLSNSFESVFDSPDDFYSDAKLVLSDGREVSFHRCVLSARSSFFKSALAAAKKEKDSNNTAAVKLELKEIAKDYEVGFDSVVTVLAYVYSSRVRPPPKGVSECADENCCHVACRPAVDFMLEVLYLAFIFKIPELITLYQRHLLDVVDKVVIEDTLVILKLANICGKACMKLLDRCKEIIVKSNVDMVSLEKSLPEELVKEIIDRRKELGLEVPKVKKHVSNVHKALDSDDIELVKLLLKEDHTNLDDACALHFAVAYCNVKTATDLLKLDLADVNHRNPRGYTVLHVAAMRKEPQLAASALEKGASASEATLEGRTALMIAKQATMAVECNNIPEQCKHSLKGRLCVEILEQEDKREQIPRDVPPSFAVAADELKMTLLDLENRVALAQRLFPTEAQAAMEIAEMKGTCEFIVTSLEPDRLTGTKRTSPGVKIAPFRILEEHQSRLKALSKTVELGKRFFPRCSAVLDQIMNCEDLTQLACGEDDTAEKRLQKKQRYMEIQETLKKAFSEDNLELGNSSLTDSTSSTSKSTGGKRSNRKLSHRRR
modifications: left off: small tags and cut ends
notes: SUMOylation-deficient mutant of NPR1
NPR1-GFP; after SA treatment
  subcellular localization: predominant cytoplasmic localization
NPR1-GFP; lower SA concentration (1 mM), Arabidopsis seedlings
  cytoplasmic body formation: cytoplasmic bodies were also observed at the lower SA concentration

Source: US20230227838A1, “ENHANCED CELL SURVIVAL AGAINST BIOTIC AND ABIOTIC STRESSES THROUGH SALICYLICK ACID-INDUCED NPR1 CONDENSATES” (priority 2020, published 2023)
